# Source: a melting point compilation (Tetko et al.; mined from patent text by program, amines drawn as free bases though some values may be those of a salt)
row,SMILES,melting point [°C]
1,CCC1(C)C(=O)c2c(cc(OC)c(Cl)c2Cl)C1c1ccccc1 (stereo not given),132
2,CCCCN(CCCC)c1ccc(C=Cc2ccc(C=CC3=C(C#N)C(=C(C#N)C#N)OC3(C)C)s2)c(O[Si](c2ccccc2)(c2ccccc2)C(C)(C)C)c1,218 to 219
3,N#CN=C(N)c1cc2c(Oc3ccc(Cl)cc3)cncc2s1,265 to 268
4,C[C@@H](C(=O)O)N(C)C(=O)CCSSc1ccc([N+](=O)[O-])cc1,74 to 77
5,CC(C)(C)c1cc(CN(c2cccnc2)S(=O)(=O)c2ccc(F)cc2)cc(C(C)(C)C)c1O,137 to 138
6,CC(=NOCC=Cc1ccccc1)C(=O)Cl,120 to 121
7,FC(F)(F)c1c(Cl)c(Cl)c(C=S)c(Cl)c1Cl,98.5 to 100
8,Cc1c(Cc2c[nH]cn2)ccc(O)c1C(N)=O,263
9,CC1(C)CCOc2c(CC#Cc3ccc(C(=O)O)c(O)c3)cccc21,182 to 183
10,CCN(CC)c1ccc2c(c1)OC(C(F)(F)F)C(C(=O)O)=C2 (stereo not given),214 to 215
11,O=C(O)CCC(Cc1ccc(Cl)cc1Cl)(C(=O)C=Cc1ccc(Cl)cc1)c1ccccc1 (stereo not given),215 to 226
12,CNC(=O)c1ccccc1C(O)(c1ccc(Cl)cc1)c1ccccc1CN(C)C (stereo not given),154 to 156
13,CC(C)(C)c1cc(I)c(O)c(C=NO)c1,154 to 156
14,COc1ccc(-c2ccccc2-c2ccc(S(C)(=O)=O)cc2)cc1Cl,162
15,CNC1=Nc2ccc(Br)cc2C(c2ccccc2)=NC1,234 to 235
16,CC(C)(ON1C(C)(C)CC(OC(=O)c2ccccc2)CC1(C)C)c1ccccc1,105 to 108
17,CCCCCCCCCCCCCCCCOc1cc(CO)cc(CO)c1,90
18,CNC(=S)N(C)c1cncc(C(F)(F)F)c1,86 to 90
19,CCCc1c(OCCOc2ccc(C(=O)O)cc2)ccc(C(C)=O)c1O,175 to 176
20,COC(=O)COc1ccc2c(c1)Oc1cc(O)ccc1C21OC(=O)c2ccccc21 (stereo not given),236
21,O=C(O)CNC(COCc1cc(C(F)(F)F)cc(C(F)(F)F)c1)C(c1ccccc1)c1ccccc1 (stereo not given),116 to 119
22,Fc1c(Cl)cccc1COc1cccnc1NC(=S)Nc1ccc(Cl)cc1,174 to 176
23,Oc1onc(CCCc2cccc(OCc3ccccc3)c2)c1C(c1ccccc1)c1ccccc1,89 to 90.5
24,Oc1ncnc2c1nc(CC1CCN(CC3COc4ccccc4O3)CC1)n2Cc1ccc(F)cc1 (stereo not given),201

row,SMILES,melting point [°C]
1,CC1(C)C(C(=O)O)N2C(=O)C(NC(=O)COc3ccccc3)C2S1=O (stereo not given),160 to 161
2,Cc1ccccc1-c1ccc(C(=O)N2Cc3ccc(C(=O)NCCc4cccc(Cl)c4)n3Cc3ccccc32)cc1C,174 to 176
3,CCOc1ccc(C(=O)N2CC(C(=O)OC)N(S(=O)(=O)c3ccc(OC)cc3)Cc3ccccc32)cc1 (stereo not given),187 to 190
4,Cc1cscc1NC(=S)NC1CCCCC1N (stereo not given),205 to 210
5,O=C(Oc1cc([N+](=O)[O-])c(F)cc1Cl)Oc1cc([N+](=O)[O-])c(F)cc1Cl,165 to 166
6,S=C(Cc1ccc(Cl)cc1)N1CCOCC1,175 to 177
7,O=c1oc2ccccc2c(O)c1CCOc1ccccc1,157 to 159
8,COCCn1cc(-c2ccccc2)n(C(=O)c2ccccc2)c1=O,112 to 117
9,C#CCOCc1nnc(Nc2ccc3c(c2)ncn3-c2ccccc2)c2ccccc12,89 to 91
10,Cc1c(NC(=O)CC(C)(C)C)cc2c(c1C)OC(C)(C)C2Nc1ccccc1OC(F)(F)F (stereo not given),196 to 197
11,O=C1CCN(CCc2ccccc2)CC1C(c1ccccc1)c1ccccc1 (stereo not given),73 to 76
12,CCCNC(=O)C1(CCCc2ccccc2N2Cc3ccccc3C2=O)c2ccccc2-c2ccccc21,122 to 125
13,O=C(CCCc1ccccc1)N(O)Cc1ccccc1,72 to 74
14,CCOCCOc1ccc(CCNC(=O)/C=C/c2cccs2)cc1S(=O)(=O)NC(=O)NC,65
15,Oc1cc(-c2ccco2)c2oc(-c3ccc(O)c(F)c3)nc2c1,155
16,NC(=O)CCC(=O)NCCS,173
17,CCCc1c(OCc2cccc(C(=O)NCCCc3cccnc3)c2)ccc(C(C)=O)c1O,110 to 112
18,CC12CCC(O)CC1=CCC1C2CCC2(C)C(=NC3CC3)CCC12 (stereo not given),187
19,CC1(C)OC(c2ccc(S(C)(=O)=O)cc2)=C(c2ccc(S(C)(=O)=O)cc2)C1=O,245 to 257
20,CC[C@H]1CN(c2c(F)c(N)c3c(=O)c(C(=O)O)cn(C4CC4)c3c2F)C[C@H]1CNCCC(=O)C(F)(F)F (relative stereo),145 to 146
21,CCCCCCCCCCCCCCOc1ccc(NC(=O)Nc2cccc(CO)c2)cc1,150 to 158
22,O=C(NC1N=C(c2ccccc2F)c2ccccc2NC1=O)c1ccc(C(F)(F)F)cc1 (racemic),209 to 211
23,O=[N+]([O-])c1cccc(-c2cnc3[nH]c4ccccc4c3c2)c1,> 220

# Continued, values first:
row,melting point [°C],SMILES
1,133 to 135,COc1ccc(-c2nc(N3CCOCC3)sc2-c2ccc(OC)cc2)cc1
2,108 to 109,COC(=O)CCc1cc(N)c(O)c(C(C)(C)C)c1
3,188 to 190,Cc1cccnc1C=CCN1CCc2nc(N)sc2CC1
4,119,COc1ccc(C2(O)c3ccccc3C(=O)N2CCc2cccc(OC)c2)cc1 (stereo not given)
5,196 to 197,CNC(=O)NC1CC(C)(C)Cc2cc(C)cc(C)c21 (stereo not given)
6,193,O=C(O)c1cn(CCCO)c(=O)c2cc(Cl)ccc12
7,122 to 124,COC(=O)C1=Cc2cccc(C=O)c2OCC1
8,131 to 132,COc1cc(OC)nc(Sc2cccc(C)c2C(=O)O)n1
9,221 to 224,CN(C)S(=O)(=O)c1ccc(Cl)c(-c2csc(=Nc3ccc(O)cc3)n2C)c1
10,157 to 159,CCOC(=O)C1=C(C)NC(CSCCl)=C(C(=O)OCC)C1c1cccc([N+](=O)[O-])c1 (stereo not given)
11,171 to 172,O=C(c1ccc(-c2ccccc2)cc1)N1Cc2cccn2Cc2ncccc21
12,155 to 157,O=C1CN2C(=O)CCC2N1 (stereo not given)
13,219 to 221,Cc1cc(C(=O)C2CCc3nc[nH]c3C2)c2ccccn12 (stereo not given)
14,248 to 250,O=c1c2c(CCc3ccccc3)n[nH]c2c2cccnc2n1-c1ccccc1
15,119 to 121,COc1cc2c(cc1OC)CN(CCCCNC(=O)c1cc(Br)ccc1OCCF)CC2
16,290 to 292,CCc1c(C)[nH]c2cc(OCCOc3ccccc3)c(Cl)cc2c1=O
17,213 to 215,CC(C)(C)n1nc(-c2ccc(Cl)cc2)c2c(N)c(C#N)cnc21
18,197 to 199,Cc1nc(N)c2ncn(CCOc3ccccc3)c2c1C
19,122 to 124,O=Cc1cccc2ncc(-c3ccccc3)cc12
20,180 to 182,CC(C)(C)NS(=O)(=O)c1c(CCl)nc2ccccn12
21,110 to 111,CN1CCC(c2c[nH]c3ccc(NC(=O)c4cccc(Cl)c4)nc23)CC1
22,63 to 69,CCCCCCn1c(C)cc(C)c(C#N)c1=O
23,203,O=C(NCCN1CC=C(n2c(=O)[nH]c3ccccc32)CC1)c1ccc(F)cc1
24,> 280,Nc1c(F)c(N2Cc3cccc(Cl)c3C2)c(F)c2c1c(=O)c(C(=O)O)cn2C1CC1
25,134 to 136,CCCCc1nc2cc(C(=O)OC)ccc2n1Cc1ccc(-c2ccccc2-c2nnn[nH]2)cc1
26,274,Cc1ccc2c(c1)c(N1CCN(C(=O)c3cccs3)CC1)c(C#N)c(=O)n2Cc1ccc(F)cc1
27,252 to 255,Cc1ccc2[nH]c(=O)cc(CCO)c2c1

row,melting point [°C],SMILES
1,104 to 111,COC(=O)c1cccc(C)c1/C=C/Cc1c(OC)c(C)c2c(c1OC(C)=O)C(=O)OC2
2,60 to 63,CN(C1CCCCC1)S(=O)(=O)c1ccc(CCSn2cnc3ccccc32)cc1
3,110 to 112,CC1Cc2ccc([N+](=O)[O-])cc2C=N1 (stereo not given)
4,100 to 102,COc1cc2cc(COCC(=O)N3CCN(C)CC3)c(CO)c(-c3ccnc(-n4c(=O)ccc5ccccc54)c3)c2cc1OC
5,185 to 187,O=C(c1ccccc1)c1cc2c(cc1O)C(C(=O)O)CC2 (stereo not given)
6,133 to 134,Cc1ncccc1NC(=NC#N)NC(NC(=O)CCCCc1ccccc1)C(C)(C)C (stereo not given)
7,163 to 164,Cn1cc(C(=O)Nc2ccccc2-c2ccc(Br)cc2)c(C(F)(F)F)c1
8,154 to 157,CCOC(=O)c1cn(C2CC2)c2c(Cl)c(F)c(F)cc2c1=O
9,238 to 240,CC(=O)c1ccc(=O)[nH]c1C=CN(C)C
10,202,O=c1ccc(Oc2ccc(Cl)cc2)n[nH]1
11,208 to 210,CCCc1nc2c(N)nc(C)c(C)c2n1CC(C)(C)NC(=O)c1ccccc1
12,222 to 224,Cn1cc2cc3ncc(-c4ccc(Cl)s4)nc3cc2n1
13,90 to 91,COc1cccc2sc(-c3ccc(C(C)(C)C)cc3)nc12
14,81 to 82,CC(C)(CO)N1CC(COc2cccc(Cl)c2)OC1=O (stereo not given)
15,95 to 96,Cc1nc2c(s1)CC(=O)CC2
16,189 to 190,Cc1sc2ncc(C(=O)/C=C/c3ccccc3)n2c1C
17,158,COc1cc(N)c(Cl)cc1C(=O)N[C@H]1CCN(CCCNc2ncccn2)C[C@H]1OC (relative stereo)
18,184 to 186,CC(=O)Oc1ccc(-c2cnc(N)c(Cc3ccccc3)n2)cc1
19,191,O=c1nc(-c2ccc(Cl)s2)cc(C(F)(F)F)[nH]1
20,270 to 273,Cc1nc2sccn2c1C1=NNC(=O)CN1
21,115 to 116,COc1cnn(CN(C(=O)CCl)c2c(C)cccc2C)c1
22,180 to 182,COC(=O)Nc1cc2c(cn1)[nH]c1ccccc12
23,68 to 69,CCOC(=O)c1c(C)cc2cnc(-c3ccccc3C(F)(F)F)nc2c1C
24,208 to 209,CCCSc1sc(C(N)=O)c2c1-c1nn(C)cc1CC2
25,55,CCOC(=O)c1ccc(C#C[Si](C)(C)C)nc1
26,111 to 113,COCCn1nc(-c2cc(C(C)(C)C)c(O)c(C(C)(C)C)c2)c2cccnc21
